Source: patent publication US20260165982A1, “COMPOSITIONS AND METHODS FOR DELIVERY OF NUCLEIC ACID THERAPEUTICS” (Entrada Therapeutics, Inc., priority 2022, published 2026)

Tested on: HeLa cells
Assay: LNP cellular uptake / eGFP mRNA expression by FACS flow cytometry
Assay type: cell-based, Human
Conditions: eGFP mRNA cargo
Protocol: LNP cellular uptake for the LNP formulations in Table 10 was tested. HeLa cells (Human epithelial cells, ATCC) were seeded at 0.05×10^6 cells per well in 1000 μL DMEM media (Dulbecco's Modified Eagle Medium, GIBCO) containing 10% FBS (GIBCO) and 5% penicillin streptomycin (GIBCO) in 24-well plate. The LNP formulations of Table 10 containing the eGFP mRNA were prepared with a total treatment dose of 250 ng and 1000 ng eGFP mRNA per well in triplicates. The cells were incubated for 24 h at 37° C. Cells were then trypsinized and resuspended in PBS and centrifuged at 200 g for 5 min. The supernatant was removed, and the pelleted cells were redispersed in 500 μL of PBS+2% FBS per well and transferred to FACS tubes and read on a flow cytometry analyzer (BD FACSCanto™ II). The data presented are the mean fluorescent intensity of the signals from each cell treatment analyzed. For transfection efficiency, treated cells were gated for EGFP expression, and the data presented are the percentage of cells analyzed with higher EGFP expression than untreated cells. […] HeLa cells were treated with the various formulations for 24 hours before using fluorescence activated cell sorting (FACS) flow cytometry to quantify eGFP expression in the treated cells. The higher the mean fluorescence intensity, the greater the expression of eGFP, ant therefore, the greater the transfection efficiency.

CCCCCCCCCCCOC(=O)CCCCCN(CCO)CCCCCCCC(=O)OC(CCCCCCCC)CCCCCCCC [SM-102]
efficacy (transfection), findings from all the experiments of Example 2: more efficacious ionizable lipid than D-Lin-MC3-DMA
